# Columns and labels:
# [1] = Dye-encapsulated nanofibers in absence of synovial fluid (PBS); format: physicochemical; conditions: DiD-encapsulated fibers in PBS
# Excerpt: In vitro. […] Fibers were isolated by repetitive centrifugation and washing steps.
# [2] = DiD-encapsulated fibers, synovial fluid, 37° C.
# Description: In vitro. […] Fibers were incubated with synovial fluid at 37° C. that was extracted from human arthritic joints (inflamed).
# [3] = system: arthritis bearing mouse joints (ankles and knees); conditions: direct injection into joints, sectioned after 8 days, fluorescence microscopy
# Excerpt: In vivo: DiD encapsulated nanofiber gels (salicin-deconate nanofibers, prepared as above), were directly injected into the arthritis bearing mouse joints (ankles and knees) to examine the retention of nanofibers within the joints. After 8 days, ankles and knees were sectioned and imaged under fluorescence microscopy to examine the presence of nanofibers.
# In vivo: DiD encapsulated nanofiber gels were directly injected into the arthritis bearing mouse joints (ankles and knees) to examine the retention of nanofibers within the joints. After 8 days, ankles and knees were sectioned and imaged under fluorescence microscopy to examine the presence of nanofibers.
# [4] = Gelation ability of polyol amphiphiles in water and organic solvents; format: physicochemical; set-up: key: G = gel; P = precipitate; S = soluble; I = insoluble; conditions: solvent CHCl3
# Excerpt: (§1) Examples of suitable solvents include water, salt water (such as a NaCl solution), different […] such as TRISZMA buffers, and alkaline and acidic solutions. In addition to water-based solutions, the compounds can gel various aromatic and non-aromatic organic solvents, such as benzene, toluene, hexane, and acetonitrile. All the gels obtained in Table 7 were thermally reversible. Above their gelation temperature, the gels dissolved in solvent, but could be returned to their original gel state upon cooling.
# [5] = as above; format: physicochemical; set-up: key: G = stable gel at room temperature; P = precipitate; Sol = soluble
# Excerpt: as §1
Compound,stability of nanofibers in absence of synovial fluid [1],period of slow degradation of fibers by enzymes [2] [days],presence of nanofibers in joints [3],Gelation ability [4],"Gelation ability ([5]; solvent 1,4-dioxane)",Gelation ability ([5]; solvent CCl4),Gelation ability ([5]; solvent CH3CN),Gelation ability ([5]; solvent DMSO),Gelation ability ([5]; solvent NaCl (40 mM)),Gelation ability ([5]; solvent TRIS (50 mM)),Gelation ability ([5]; solvent acetone),Gelation ability ([5]; solvent acidic (pH < 3)),Gelation ability ([5]; solvent basic (pH > 12)),Gelation ability ([5]; solvent benzene),Gelation ability ([5]; solvent cyclohexane),Gelation ability ([5]; solvent toluene),Gelation ability ([5]; solvent water)
CCCCCCCCCC(=O)OC[C@H]1O[C@@H](Oc2ccccc2CO)[C@H](O)[C@@H](O)[C@@H]1O [Salicin-deconate],stable (in PBS) for months,15,localized within the joints,–,–,–,–,–,–,–,–,–,–,–,–,–,–
CCCCCCCCCCCC(=O)NC(CO)(CO)CO [polyol-12],–,–,–,P,Sol,G,G,Sol,G,G,Sol,G,G,G,G,G,G

# From US11458153B2, “Drug delivery composition comprising a self-assembled gelator” (The Brigham and Women's Hospital, Inc., priority 2008, dated 2022)
